For one assay, the target named is ALPK1 (Homo sapiens (Human), UniProt Q96QP1). As to the kind of experiment: ALPK1 in vitro kinase assay (HTRF of TIFA phosphorylation). Type of assay: biochemical. Background: TR-FRET usually uses a lanthanide donor and a delayed reading to cut background.
Assay [1] deals with ALPK1-dependent NFκB reporter gene activation in HEK293 cells stably expressing an NF-kB reporter (G9 cells). As to the kind of experiment: NFκB gene reporter alkaline phosphatase assay. Type of assay: cell-based. The settings on record: Homo sapiens, HEK293; read-out: NFkB assay IC50. In short, it runs like this: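 Using pNPP substrate, NF-kB reporter activity in stably transfected HEK293 (G9) cells is determined following 30 min compound pretreatment and stimulation with D-glycero-D-manno-6-fluoro-heptose-1β-S-ADP. Logistic curve fitting yields IC50.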

Each structure is given as a SMILES string.

For orientation: IC50 means the point on the concentration scale where inhibition reaches its midpoint.

Chain of ALPK1 (Q96QP1 whole entry): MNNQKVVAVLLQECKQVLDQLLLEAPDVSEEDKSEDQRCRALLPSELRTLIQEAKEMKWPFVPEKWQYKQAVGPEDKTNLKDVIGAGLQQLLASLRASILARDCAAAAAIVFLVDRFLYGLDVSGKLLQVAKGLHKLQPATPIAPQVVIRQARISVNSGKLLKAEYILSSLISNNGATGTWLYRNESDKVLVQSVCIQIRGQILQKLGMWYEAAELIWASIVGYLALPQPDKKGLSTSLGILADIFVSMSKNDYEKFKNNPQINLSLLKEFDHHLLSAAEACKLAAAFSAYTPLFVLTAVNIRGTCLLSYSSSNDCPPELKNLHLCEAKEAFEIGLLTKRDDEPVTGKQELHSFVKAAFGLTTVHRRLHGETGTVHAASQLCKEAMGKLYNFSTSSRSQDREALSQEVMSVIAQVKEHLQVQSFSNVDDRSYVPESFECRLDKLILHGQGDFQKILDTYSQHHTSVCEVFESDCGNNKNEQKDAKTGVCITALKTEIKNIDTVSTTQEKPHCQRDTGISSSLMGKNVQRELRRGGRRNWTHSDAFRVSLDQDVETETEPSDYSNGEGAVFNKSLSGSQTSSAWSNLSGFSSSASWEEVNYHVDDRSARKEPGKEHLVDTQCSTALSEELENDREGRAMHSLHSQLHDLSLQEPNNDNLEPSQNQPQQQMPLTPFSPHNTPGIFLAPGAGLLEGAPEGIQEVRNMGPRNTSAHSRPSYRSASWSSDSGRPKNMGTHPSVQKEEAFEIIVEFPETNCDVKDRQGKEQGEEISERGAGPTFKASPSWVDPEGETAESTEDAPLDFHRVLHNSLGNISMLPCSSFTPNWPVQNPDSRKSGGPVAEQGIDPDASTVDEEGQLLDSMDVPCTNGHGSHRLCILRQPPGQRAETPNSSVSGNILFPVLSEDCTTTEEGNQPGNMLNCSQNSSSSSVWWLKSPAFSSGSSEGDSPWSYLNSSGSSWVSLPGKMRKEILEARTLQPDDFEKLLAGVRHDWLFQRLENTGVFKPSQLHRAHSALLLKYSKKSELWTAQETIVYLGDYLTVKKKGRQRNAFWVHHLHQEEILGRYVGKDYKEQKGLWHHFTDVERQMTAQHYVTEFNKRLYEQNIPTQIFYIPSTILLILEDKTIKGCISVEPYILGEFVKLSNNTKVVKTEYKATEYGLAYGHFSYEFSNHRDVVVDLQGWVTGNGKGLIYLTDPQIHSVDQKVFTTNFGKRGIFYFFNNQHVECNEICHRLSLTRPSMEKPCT

Turning to `COc1ccc(C(C)(C)c2csc(NC(=O)NCc3ccc(C(=O)NC4CCN(C)CC4)cc3)n2)cc1` [Example A018, 4-((3-(4-(2-(4-methoxyphenyl)propan-2-yl)thiazol-2-yl)ureido)methyl)-N-(1-methylpiperidin-4-yl)benzamide], the IC50 on ALPK1 is 29 nM; in assay [1], 1280 nM.

As for `CC(C)(c1ccc(Br)cc1)c1csc(NC(=O)NC(CO)c2ccc(N3CCNCC3)cc2)n1` (stereo not drawn) [Example A101, 1-(4-(2-(4-bromophenyl)propan-2-yl)thiazol-2-yl)-3-(2-hydroxy-1-(4-(piperazin-1-yl)phenyl)ethyl)urea], the values for the IC50 (on ALPK1; in assay [1]) were 50 nM and 1650 nM, respectively.

Regarding `CC(C)(c1ccc(Br)cc1)c1csc(NC(=O)NCCS(N)(=O)=O)n1` [Example A131, 2-(3-(4-(2-(4-bromophenyl)propan-2-yl)thiazol-2-yl)ureido)ethanesulfona-mide], the results for the IC50 (against ALPK1; in assay [1]) were 219 nM and 940 nM, respectively.

For the compound `COc1ccc(C(C)(C)c2csc(NC(=O)NCCCN3CCC(N)C3)n2)cc1` (stereo not drawn) [Example A226, 1-(3-(3-aminopyrrolidin-1-yl)propyl)-3-(4-(2-(4-methoxyphenyl)propan-2-yl)thiazol-2-yl)urea], the IC50 at ALPK1 is 100 nM; in assay [1], 4820 nM.

For the compound `COc1ccc(C(C)(C)c2csc(NC(=O)NC(C)c3cc(F)c(N4CCNCC4)c(F)c3)n2)cc1` (stereo not drawn) [Example A152, 1-(1-(3,5-difluoro-4-(piperazin-1-yl)phenyl)ethyl)-3-(4-(2-(4-methoxyphenyl)propan-2-yl)thiazol-2-yl)urea], the IC50 against ALPK1 came to 55 nM; in assay [1], 350 nM.

In the case of `CC(C)(c1ccc(Br)cc1)c1csc(NC(=O)NCc2ccc(N3CCN(CCO)CC3)nc2)n1` [Example A010, 1-(4-(2-(4-bromophenyl)propan-2-yl)thiazol-2-yl)-3-((6-(4-(2-hydroxyethyl)piperazin-1-yl)pyridin-3-yl)methyl)urea], the IC50 against ALPK1 is 200 nM; in assay [1], 3950 nM.

On to `COc1cc(CNC(=O)Nc2nc(C(C)(C)c3ccc(Br)cc3)cs2)ccc1N1CCNCC1` [Example A220, 1-(4-(2-(4-bromophenyl)propan-2-yl)thiazol-2-yl)-3-(3-methoxy-4-(piperazin-1-yl)benzyl)urea], for which the IC50 was found to be 44 nM at ALPK1 and 1320 nM in assay [1].

As for `CC(C)(c1ccc(Cl)cc1)c1csc(NC(=O)NCc2cnc(N3CCNCC3)nc2)n1` [Example A084, 1-(4-(2-(4-chlorophenyl)propan-2-yl)thiazol-2-yl)-3-((2-(piperazin-1-yl)pyrimidin-5-yl)methyl)urea], the results for the IC50 (against ALPK1; in assay [1]) were 22 nM and 340 nM, respectively.

For the compound `CC(C)(c1ccc(Br)cc1)c1csc(NC(=O)NCc2ccc(N3CCNCC3)c(N)c2)n1` [Example A098, 1-(3-amino-4-(piperazin-1-yl)benzyl)-3-(4-(2-(4-bromophenyl)propan-2-yl)thiazol-2-yl)urea], the figures for the IC50 (at ALPK1; in assay [1]) were 31 nM and 1070 nM, respectively.

In the case of `CC(C)(c1ccc(Br)cc1)c1csc(NC(=O)NCc2cnc(N3CCC(O)CC3)nc2)n1` [Example A082, 1-(4-(2-(4-bromophenyl)propan-2-yl)thiazol-2-yl)-3-((2-(4-hydroxypiperidin-1-yl)pyrimidin-5-yl)methyl)urea], the IC50 was found to be 125 nM on ALPK1 and 6150 nM in assay [1].

With `COCCCNC(=O)Nc1nc(C(C)(C)c2ccc(OC)cc2)cs1` [Example A111, 1-(4-(2-(4-methoxyphenyl)propan-2-yl)thiazol-2-yl)-3-(3-methoxypropyl)urea], the IC50 is 127 nM at ALPK1 and 1240 nM in assay [1].

Regarding `[2H]C([2H])(O)CNC(=O)Nc1nc([C@@](C)(C#C)c2ccc(Cl)cc2)cs1` (stereo in doubt) [Example A321, 1-[4-[1-(4-chlorophenyl)-1-methyl-prop-2-ynyl]thiazol-2-yl]-3-(2,2-dideuterio-2-hydroxy-ethyl)urea], the IC50 on ALPK1 came out at 28 nM; in assay [1] it was 300 nM.

In the case of `C#CC(C)(c1ccc(Cl)cc1)c1csc(NC(=O)N2CCC(O)CC2)n1` (stereo not drawn) [Example A307, N-(4-(2-(4-chlorophenyl)but-3-yn-2-yl)thiazol-2-yl)-4-hydroxypiperidine-1-carboxamide], the IC50 against ALPK1 turned out to be 2060 nM; in assay [1], 3150 nM.

On to `O=C(NCCO)Nc1nc(C2(c3ccc(Br)cc3)CCC2)cs1` [Example A158, 1-(4-(1-(4-bromophenyl)cyclobutyl)thiazol-2-yl)-3-(2-hydroxyethyl)urea], for which the IC50 against ALPK1 is 67 nM; in assay [1] it was 2860 nM.

As to `CC(C)(c1ccc(Br)cc1)c1csc(NC(=O)NCc2ccc(N3CCC(O)C3)cc2)n1` (stereo not drawn) [Example A009, 1-(4-(2-(4-bromophenyl)propan-2-yl)thiazol-2-yl)-3-(4-(3-hydroxypyrrolidin-1-yl)benzyl)urea], the IC50 on ALPK1 was found to be 154 nM; in assay [1], 3150 nM.

In the case of `COc1ccc(C(C)(C)c2csc(NC(=O)NCc3ccc(NCCO)nc3)n2)cc1` [Example A014, 1-((6-((2-hydroxyethyl)amino)pyri-din-3-yl)methyl)-3-(4-(2-(4-methoxyphenyl)propan-2-yl)thiazol-2-yl)urea], the IC50 against ALPK1 was 160 nM; in assay [1] it was 880 nM.

With `Cc1nc(N2CCNCC2)ncc1CNC(=O)Nc1nc(C(C)(C)c2ccc(Br)cc2)cs1` [Example A089, 1-(4-(2-(4-bromophenyl)propan-2-yl)thiazol-2-yl)-3-((4-methyl-2-(piperazin-1-yl)pyrimidin-5-yl)methyl)urea], the IC50 on ALPK1 worked out at 26 nM; in assay [1], 1190 nM.

As for `CC(C)(c1ccc(Br)cc1)c1csc(NC(=O)NCc2cnc(N3CCC(O)C3)nc2)n1` (stereo not drawn) [Example A079, 1-(4-(2-(4-bromophenyl)propan-2-yl)thiazol-2-yl)-3-((2-(3-hydroxypyrrolidin-1-yl)pyrimidin-5-yl)methyl)urea], the results for the IC50 (on ALPK1; in assay [1]) were 170 nM and 1680 nM, respectively.

Consider `COc1ccc(C(C)(C)c2csc(NC(=O)NCc3ccc(CN4CCNCC4)c(F)c3)n2)cc1` [Example A037, 1-(3-fluoro-4-(piperazin-1-ylmethyl)benzyl)-3-(4-(2-(4-methoxyphenyl)propan-2-yl)thiazol-2-yl)urea], for which the IC50 at ALPK1 came out at 57 nM; in assay [1], 2510 nM.

Consider `C#CC(CC)(c1ccc(Br)cc1)c1csc(NC(=O)NCCO)n1` (stereo not drawn) [Example A157, 1-(4-(3-(4-bromophenyl)pent-1-yn-3-yl)thiazol-2-yl)-3-(2-hydroxyethyl)urea], for which the IC50 on ALPK1 worked out at 22 nM; in assay [1], 1360 nM.

As for `C#C[C@](C)(c1ccc(Cl)cc1)c1csc(NC(=O)NCCC(C)(C)O)n1` [Example A250, (R)-1-(4-(2-(4-chlorophenyl)but-3-yn-2-yl)thiazol-2-yl)-3-(3-hydroxy-3-methylbutyl)urea], the IC50 on ALPK1 was 417 nM; in assay [1], 1180 nM.

With `CC(C)(c1ccc(Br)cc1)c1csc(NC(=O)NCCN)n1` [Example A210, 1-(2-aminoethyl)-3-(4-(2-(4-bromophenyl)propan-2-yl)thiazol-2-yl)urea], the results for the IC50 (against ALPK1; in assay [1]) were 95 nM and 4160 nM, respectively.

Regarding `NC1CCN(c2ccc(CNC(=O)Nc3nc(C4(c5ccc(Br)cc5)CCCC4)cs3)cc2)CC1` [Example A191, 1-(4-(4-aminopiperidin-1-yl)benzyl)-3-(4-(1-(4-bromophenyl)cyclopent-yl)thiazol-2-yl)urea], the IC50 against ALPK1 is 80 nM; in assay [1] it was 6910 nM.

`COc1ccc(C(C)(C)c2csc(NC(=O)NCc3ccc(N4CCNCC4)c(C(N)=O)c3)n2)cc1` [Example A060, 5-((3-(4-(2-(4-methoxyphenyl)propan-2-yl)thiazol-2-yl)ureido)methyl)-2-(piperazin-1-yl)benzamide]: the IC50 came to 8 nM against ALPK1 and 4800 nM in assay [1].

`CC(C)(c1ccc(Br)cc1)c1csc(NC(=O)NCc2cnc(N3CCN(CCO)CC3)nc2)n1` [Example A103, 1-(4-(2-(4-bromophenyl)propan-2-yl)thiazol-2-yl)-3-((2-(4-(2-hydroxyethyl)piperazin-1-yl)pyrimidin-5-yl)methyl)urea]: the figures for the IC50 (on ALPK1; in assay [1]) were 97 nM and 6200 nM, respectively.

For `COc1ccc(C(C)(C)c2csc(NC(=O)NCCS(C)(=O)=O)n2)cc1` [Example A013, 1-(4-(2-(4-methoxyphenyl)propan-2-yl)thiazol-2-yl)-3-(2-(methylsulfonyl)ethyl)urea], the IC50 against ALPK1 worked out at 316 nM; in assay [1], 2970 nM.

`[2H]c1sc(NC(=O)NCCO)nc1[C@@](C)(C#C)c1ccc(Cl)cc1` [Example A299, 1-(4-(2-(4-chlorophenyl)but-3-yn-2-yl)thiazol-2-yl)-3-(2-hydroxyethyl)urea]: the figures for the IC50 (against ALPK1; in assay [1]) were 58 nM and 460 nM, respectively.

With `CC(C)(c1ccc(Br)cc1)c1csc(NC(=O)NCc2ccc(N3CCNCC3)c(C(F)(F)F)c2)n1` [Example A049, 1-(4-(2-(4-bromophenyl)propan-2-yl)thiazol-2-yl)-3-(4-(piperazin-1-yl)-3-(trifluoromethyl)benzyl) urea], the IC50 on ALPK1 is 119 nM; in assay [1] it was 800 nM.

As to `CC(C)(c1ccc(Br)cc1)c1csc(NC(=O)NCc2ccc(N3CCC(CN)CC3)cc2)n1` [Example A211, 1-(4-(4-(aminomethyl)piperidin-1-yl)benzyl)-3-(4-(2-(4-bromophenyl)propan-2-yl)thiazol-2-yl)urea], the IC50 against ALPK1 amounted to 94 nM; in assay [1] it was 2590 nM.

As to `CC(C)(c1ccc(Br)cc1)c1csc(NC(=O)NCCCS(C)(=O)=O)n1` [Example A130, 1-(4-(2-(4-bromophenyl)propan-2-yl)thiazol-2-yl)-3-(3-(methylsulfonyl)propyl) urea], the IC50 at ALPK1 stood at 293 nM; in assay [1] it was 1100 nM.

Values taken from US20240109853A1 (Shanghai Yao Yuan Biotechnology Co., Ltd., priority 2020, published 2024).
